Laboratory results published in patent publication US9498479B2, “Dihydropyrimidine compounds and their application in pharmaceuticals” (SUNSHINE LAKE PHARMA CO., LTD., priority 2013, dated 2016).
pEC50: −log10 of the molar value. Like-named read-outs stand apart in the source and are kept apart here.

Columns and labels:
HBV = assay: In-vitro anti-HBV activity in stable HBV-producing cell line (HepG2.2.15), HBV DNA in culture fluid by qPCR; type: cell-based; details: Hepatitis B virus, 168 h; HepG2.2.15 cells, HBV DNA in culture media on day 7, qPCR
Protocol: Specific procedures are as follows:
HepG2.2.15 cells were seeded into each well of 96-well plates, 40,000 cells per well. Cells were treated with cell culture medium containing compounds with different concentrations 24 hours after cell seeding. The final concentration of each compound was 16.4 μM in each well and each compound was diluted to desired concentration using 3-fold gradient dilution protocol, 9 diluted points in duplicate. The culture mediums containing the compounds were refreshed on day 4 post cell seeding. Culture media were collected from the HepG2.2.15 plates on day 7 post cell seeding followed by HBV DNA extraction.
HBV DNA extraction: The HBV DNA extraction was performed using QIAamp 96 DNA Blood Kit (QIAGEN 51161).
PCR for quantification: PCR mix was prepared according to PCR system. PCR mix was dispensed to 96-well optical reaction plates (special for quantification). The standard diluted proportionally was added. Then the sample was added; The plates were sealed with optical adhesive film; PCR system was performed according to programs.
Percentage of HBV inhibition of DNA replication by compound was calculated using the following equation: % Inh.=[1-HBV DNA quantity of sample/HBV DNA quantity of DMSO control]*100.
Calculating EC50 value of compounds to HBV replication: the EC50 values were calculated based on “four-parameter logistic equation” and using GraphPad Prism 5 analysis software.

[1] = Test compounds' PK assay in ICR mice; type: in vivo; details: for AUC(0-t): AUC in 0-24 hours; for AUC(0-inf): AUC in 0 hour to infinite time; for Vd: read-out: Vss
Protocol: The test compounds were poured into ICR mice stomach through mouth with 10 mg/kg or 5 mg/kg, or administered 2 mg/kg to ICR mice by tail-intravenous injection. Blood sample of orbital vein was taken at 0.083, 0.25, 0.5, 1, 2, 4, 6, 8 and 24 hours after administration, and collected in anticoagulation tube added with EDTA-K2. The test compounds were extracted from plasma samples and chromatographed on a tandem mass spectrometer. Quantitation was performed using multiple reaction monitoring (MRM). Pharmacokinetic parameters were calculated using WinNonlin 6.3 software with non compartment model.

[2] = ICR mice, po 5 mg/kg vs iv 2 mg/kg, calculated by the AUClast
[3] = mouse, plasma, ICR mice, iv, 2 mg/kg
[4] = mouse, plasma, ICR mice, iv, 2 mg/kg, read-out: Cmax
[5] = mouse, plasma, ICR mice, iv, 2 mg/kg, read-out: Tmax
[6] = mouse, plasma, ICR mice, po, 5 mg/kg
[7] = mouse, plasma, ICR mice, po, 5 mg/kg, read-out: Cmax
[8] = mouse, plasma, ICR mice, po, 5 mg/kg, read-out: Tmax

SMILES: CCOC(=O)C1=C(CN2CCS(=O)(=O)C[C@H]2C(=O)O)NC(c2nccs2)=N[C@H]1c1ccc(F)cc1Br [Example 2, (R)-4-(((R)-6-(2-bromo-4-fluorophenyl)-5-(ethoxycarbonyl)-2-(thiazol-2-yl)-3,6-dihydropyrimidin-4-yl)methyl)thiomorpholine-3-carboxylic acid 1,1-dioxide]
- pEC50 (HBV): 5.18

SMILES: CCOC(=O)C1=C(CN2CC(F)(F)C[C@H]2CCC(=O)O)NC(c2nccs2)=N[C@H]1c1ccc(F)cc1Br [Example 6, 3-((R)-1-(((R)-6-(2-bromo-4-fluorophenyl)-5-(ethoxycarbonyl)-2-(thiazol-2-yl)-3,6-dihydropyrimidin-4-yl)methyl)-4,4-difluoropyrrolidin-2-yl)propanoic acid]
- F [1, 2]: 59.3%
- absorption after intragastric administration (in words) ([1]; ICR mice, po, 5 mg/kg): rapidly absorbed
- clearance [1, 3]: 10.2 mL/min/kg
- half-life [1, 3]: 46.2 min
- AUC(0-t) [1, 3]: 3270 ng·h/mL
- AUC(0-inf) [1, 3]: 3270 ng·h/mL
- Cmax [1, 4]: 6560 ng/mL
- Tmax [1, 5]: 4.8 min
- Vd [1, 3]: 0.38 L/kg
- half-life [1, 6]: 188 min
- AUC(0-t) [1, 6]: 4840 ng·h/mL
- AUC(0-inf) [1, 6]: 4850 ng·h/mL
- Cmax [1, 7]: 5410 ng/mL
- Tmax [1, 8]: 15 min

SMILES: CCOC(=O)C1=C(CN2CC(F)(F)C[C@H]2CCC(=O)O)NC(c2nccn2C)=NC1c1ccc(F)cc1Br (stereo partly drawn) [Example 7, 3-((2R)-1-((6-(2-bromo-4-fluorophenyl)-5-(ethoxycarbonyl)-2-(1-methyl-1H-imidazol-2-yl)-3,6-dihydropyrimidin-4-yl)methyl)-4,4-difluoropyrrolidin-2-yl)propanoic acid]
- pEC50 (HBV): 7.19

SMILES: CCOC(=O)C1=C(CN2CC(F)(F)C[C@H]2CC(C)C(=O)O)NC(c2nccs2)=N[C@H]1c1ccc(F)cc1Br (stereo partly drawn) [Example 8, 3-((R)-1-(((R)-6-(2-bromo-4-fluorophenyl)-5-(ethoxycarbonyl)-2-(thiazol-2-yl)-3,6-dihydropyrimidin-4-yl)methyl)-4,4-difluoropyrrolidin-2-yl)-2-methylpropanoic acid]
- F [1, 2]: 69.3%
- absorption after intragastric administration (in words) ([1]; ICR mice, po, 5 mg/kg): rapidly absorbed
- clearance [1, 3]: 11.5 mL/min/kg
- half-life [1, 3]: 81 min
- AUC(0-t) [1, 3]: 2860 ng·h/mL
- AUC(0-inf) [1, 3]: 2870 ng·h/mL
- Cmax [1, 4]: 5790 ng/mL
- Tmax [1, 5]: 4.8 min
- Vd [1, 3]: 0.39 L/kg
- half-life [1, 6]: 63 min
- AUC(0-t) [1, 6]: 4960 ng·h/mL
- AUC(0-inf) [1, 6]: 4970 ng·h/mL
- Cmax [1, 7]: 4820 ng/mL
- Tmax [1, 8]: 15 min

SMILES: CCOC(=O)C1=C(CN2CC(F)(F)C[C@H]2C(C)CC(=O)O)NC(c2nccs2)=N[C@H]1c1ccc(F)cc1Br (stereo partly drawn) [Example 9, 3-((S)-1-(((R)-6-(2-bromo-4-fluorophenyl)-5-(ethoxycarbonyl)-2-(thiazol-2-yl)-3,6-dihydropyrimidin-4-yl)methyl)-4,4-difluoropyrrolidin-2-yl)butanoic acid]
- F [1, 2]: 60.2%
- absorption after intragastric administration (in words) ([1]; ICR mice, po, 5 mg/kg): rapidly absorbed
- clearance [1, 3]: 10.3 mL/min/kg
- half-life [1, 3]: 82.2 min
- AUC(0-t) [1, 3]: 3230 ng·h/mL
- AUC(0-inf) [1, 3]: 3240 ng·h/mL
- Cmax [1, 4]: 6270 ng/mL
- Tmax [1, 5]: 4.8 min
- Vd [1, 3]: 0.33 L/kg
- half-life [1, 6]: 63.6 min
- AUC(0-t) [1, 6]: 4860 ng·h/mL
- AUC(0-inf) [1, 6]: 4870 ng·h/mL
- Cmax [1, 7]: 5460 ng/mL
- Tmax [1, 8]: 15 min

SMILES: CCOC(=O)C1=C(CN2CC(F)(F)C[C@H]2CCC(=O)O)NC(c2nccs2)=N[C@H]1c1ccc(F)cc1Cl [Example 12, 3-((R)-1-(((R)-6-(2-chloro-4-fluorophenyl)-5-(ethoxycarbonyl)-2-(thiazol-2-yl)-3,6-dihydropyrimidin-4-yl)methyl)-4,4-difluoropyrrolidin-2-yl)propanoic acid]
- pEC50 (HBV): 7.01

SMILES: CCOC(=O)C1=C(CN2CC(F)(F)C[C@H]2CCC(=O)O)NC(c2nccs2)=N[C@H]1c1ccc(Cl)cc1Cl [Example 13, 3-((R)-1-(((R)-6-(2,4-dichlorophenyl)-5-(ethoxycarbonyl)-2-(thiazol-2-yl)-3,6-dihydropyrimidin-4-yl)methyl)-4,4-difluoropyrrolidin-2-yl)propanoic acid]
- pEC50 (HBV): 7.19

SMILES: COC(=O)C1=C(CN2CC(F)(F)C[C@H]2CCC(=O)O)NC(c2nccs2)=N[C@H]1c1ccc(F)cc1Br [Example 14, 3-((R)-1-(((R)-6-(2-bromo-4-fluorophenyl)-5-(methoxycarbonyl)-2-(thiazol-2-yl)-3,6-dihydropyrimidin-4-yl)methyl)-4,4-difluoropyrrolidin-2-yl)propanoic acid]
- pEC50 (HBV): 7.10

SMILES: COC(=O)C1=C(CN2CC(F)(F)C[C@H]2CCC(=O)O)NC(c2nccs2)=N[C@H]1c1ccc(F)cc1Cl [Example 15, 3-((R)-1-(((R)-6-(2-chloro-4-fluorophenyl)-5-(methoxycarbonyl)-2-(thiazol-2-yl)-3,6-dihydropyrimidin-4-yl)methyl)-4,4-difluoropyrrolidin-2-yl)propanoic acid]
- pEC50 (HBV): 7.03

SMILES: COC(=O)C1=C(CN2CC(F)(F)C[C@H]2CCC(=O)O)NC(c2nccs2)=N[C@H]1c1ccc(Cl)cc1Cl [Example 16, 3-((R)-1-(((R)-6-(2,4-dichlorophenyl)-5-(methoxycarbonyl)-2-(thiazol-2-yl)-3,6-dihydropyrimidin-4-yl)methyl)-4,4-difluoropyrrolidin-2-yl)propanoic acid]
- pEC50 (HBV): 7.21

SMILES: CCOC(=O)C1=C(CN2CC(F)(F)C[C@@H]2CCC(=O)O)NC(c2nccs2)=N[C@H]1c1ccc(F)cc1Br [Example 17, 3-((S)-1-(((R)-6-(2-bromo-4-fluorophenyl)-5-(ethoxycarbonyl)-2-(thiazol-2-yl)-3,6-dihydropyrimidin-4-yl)methyl)-4,4-difluoropyrrolidin-2-yl)propanoic acid]
- pEC50 (HBV): 7.92

SMILES: COC(=O)C1=C(CN2CC(F)(F)C[C@@H]2CCC(=O)O)NC(c2nccs2)=N[C@H]1c1ccc(F)cc1Br [Example 18, 3-((S)-1-(((R)-6-(2-bromo-4-fluorophenyl)-5-(methoxycarbonyl)-2-(thiazol-2-yl)-3,6-dihydropyrimidin-4-yl)methyl)-4,4-difluoropyrrolidin-2-yl)propanoic acid]
- pEC50 (HBV): 7.85

SMILES: CCOC(=O)C1=C(CN2CC(F)(F)C[C@@H]2CCC(=O)O)NC(c2nccs2)=N[C@H]1c1ccc(F)cc1Cl [Example 19, 3-((S)-1-(((R)-6-(2-chloro-4-fluorophenyl)-5-(ethoxycarbonyl)-2-(thiazol-2-yl)-3,6-dihydropyrimidin-4-yl)methyl)-4,4-difluoropyrrolidin-2-yl)propanoic acid]
- pEC50 (HBV): 7.70

SMILES: COC(=O)C1=C(CN2CC(F)(F)C[C@@H]2CCC(=O)O)NC(c2nccs2)=N[C@H]1c1ccc(F)cc1Cl [Example 20, 3-((S)-1-(((R)-6-(2-chloro-4-fluorophenyl)-5-(methoxycarbonyl)-2-(thiazol-2-yl)-3,6-dihydropyrimidin-4-yl)methyl)-4,4-difluoropyrrolidin-2-yl)propanoic acid]
- pEC50 (HBV): 7.77

SMILES: CCOC(=O)C1=C(CN2CC(F)C(C)(C)C2CCC(=O)O)NC(c2nccs2)=N[C@H]1c1ccc(F)cc1Br (stereo partly drawn) [Example 39, 3-(1-(((R)-6-(2-bromo-4-fluorophenyl)-5-(ethoxycarbonyl)-2-(thiazol-2-yl)-3,6-dihydropyrimidin-4-yl)methyl)-4-fluoro-3,3-dimethylpyrrolidin-2-yl)propanoic acid]
- F [1, 2]: 86.1%
- absorption after intragastric administration (in words) ([1]; ICR mice, po, 5 mg/kg): rapidly absorbed
- clearance [1, 3]: 5.67 mL/min/kg
- half-life [1, 3]: 193 min
- AUC(0-t) [1, 3]: 5800 ng·h/mL
- AUC(0-inf) [1, 3]: 5810 ng·h/mL
- Cmax [1, 4]: 4260 ng/mL
- Tmax [1, 5]: 4.8 min
- Vd [1, 3]: 0.73 L/kg
- half-life [1, 6]: 133 min
- AUC(0-t) [1, 6]: 12500 ng·h/mL
- AUC(0-inf) [1, 6]: 12500 ng·h/mL
- Cmax [1, 7]: 4900 ng/mL
- Tmax [1, 8]: 30 min

SMILES: CCOC(=O)C1=C(CN2CCOCC2)NC(c2nccs2)=NC1c1ccc(F)cc1Br (centres unmarked) [R, Ethyl4-(2-bromo-4-fluorophenyl)-2-(thiazol-2-yl)-6-((4-morpholino)methyl)-1,4-dihydropyrimidine-5-carboxylate, reference compound]
- F ([1]; mouse, in vivo): 7.75%
- AUCINF ([1]; mouse, in vivo, iv, 2 mg/kg): 381.2 ng·h/mL
- AUClast ([1]; mouse, in vivo, iv, 2 mg/kg): 379.13 ng·h/mL
- CL ([1]; mouse, in vivo, iv, 2 mg/kg): 87.5 mL/min/kg
- Cmax ([1]; mouse, in vivo, iv, 2 mg/kg): 654.37 ng/mL
- Tmax ([1]; mouse, in vivo, iv, 2 mg/kg): 4.98 min
- Vss ([1]; mouse, in vivo, iv, 2 mg/kg): 7.91 L/kg
- t1/2 ([1]; mouse, in vivo, iv, 2 mg/kg): 172 min
- AUCINF ([1]; mouse, in vivo, po, 10 mg/kg): 147.71 ng·h/mL
- AUClast ([1]; mouse, in vivo, po, 10 mg/kg): 145.05 ng·h/mL
- Cmax ([1]; mouse, in vivo, po, 10 mg/kg): 78.2 ng/mL
- Tmax ([1]; mouse, in vivo, po, 10 mg/kg): 15 min
- t1/2 ([1]; mouse, in vivo, po, 10 mg/kg): 221 min
